Data from PubChem BioAssay AID330 (DTP/NCI, 2004).
“And” between values parts separate entries of the source, which are not always exact repeats. Equal values may be shown once. Inconclusive results and toxic doses are left out. The calls were made as follows: active = survival T/C of 150% or more; inactive = T/C below 125% in these data.

System: P388 leukemia ip, CD2F1 mice, survival T/C
Assay: NCI In Vivo Anticancer Drug Screen. Data for tumor model P388 Leukemia (intraperitoneal) in CD2F1 (CDF1) mice
Conditions: endpoint: median survival time, higher = longer survival
Summary of the method: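 Mice carrying the transplanted tumor received test compound or vehicle. Survival was recorded in each group, and the value is the treated-group measurement divided by that of the vehicle-treated control group.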

[1] = dose: 30.0 mg/kg/injection, schedule: Q01DX005 (ip), vehicle: Klucel (hydroxypropylcellulose) (HPC)
[2] = dose: 60.0 mg/kg/injection, schedule: Q01DX005 (ip), vehicle: Klucel (hydroxypropylcellulose) (HPC)
[3] = dose: 50.0 mg/kg/injection, schedule: Q01DX009 (ip), vehicle: saline
[4] = dose: 100.0 mg/kg/injection, schedule: Q01DX009 (ip), vehicle: saline
[5] = dose: 200.0 mg/kg/injection, schedule: Q01DX009 (ip), vehicle: saline
[6] = dose: 50.0 mg/kg/injection, schedule: Q04DX003 (ip), vehicle: saline
[7] = dose: 100.0 mg/kg/injection, schedule: Q04DX003 (ip), vehicle: saline
[8] = dose: 200.0 mg/kg/injection, schedule: Q04DX003 (ip), vehicle: saline
[9] = dose: 50.0 mg/kg/injection, schedule: Q01DX005 (ip), vehicle: saline with Tween-80
[10] = dose: 100.0 mg/kg/injection, schedule: Q01DX005 (ip), vehicle: saline with Tween-80
[11] = dose: 200.0 mg/kg/injection, schedule: Q01DX005 (ip), vehicle: saline with Tween-80
[12] = dose: 50.0 mg/kg/injection, schedule: Q01DX005 (ip), vehicle: Klucel (hydroxypropylcellulose) (HPC)
[13] = dose: 100.0 mg/kg/injection, schedule: Q01DX005 (ip), vehicle: Klucel (hydroxypropylcellulose) (HPC)
[14] = dose: 200.0 mg/kg/injection, schedule: Q01DX005 (ip), vehicle: Klucel (hydroxypropylcellulose) (HPC)
[15] = dose: 60.0 mg/kg/injection, schedule: Q01DX005 (ip), vehicle: saline with Tween-80
[16] = dose: 120.0 mg/kg/injection, schedule: Q01DX005 (ip), vehicle: saline with Tween-80

Measured: T/C

O=C(CCSCCC(=O)N/N=C(\CO)C(O)C(O)C(O)CO)N/N=C(/CO)C(O)C(O)C(O)CO (configuration not stated)
inactive: dose: 50.0 mg/kg/injection, schedule: Q01DX005 (ip), vehicle: suspension in saline 99 % of control | dose: 100.0 mg/kg/injection, schedule: Q01DX005 (ip), vehicle: suspension in saline 104 % of control | dose: 200.0 mg/kg/injection, schedule: Q01DX005 (ip), vehicle: suspension in saline 97 % of control

OC(c1ccco1)c1nc2ccccc2s1 (configuration not stated)
inactive: dose: 15.0 mg/kg/injection, schedule: Q01DX005 (ip), vehicle: Klucel (hydroxypropylcellulose) (HPC) 106 % of control | [1] 100 % of control | [2] 105 % of control and 92 % of control

FS(F)(F)(F)(F)c1cccc(NC(=S)SCc2ccc(Cl)cc2)c1
inactive: [3] 100 % of control | [4] 101 % of control and 95 % of control | [5] 107 % of control and 118 % of control

CCOP(O)(=S)OCC.[Fe]
inactive: dose: 25.0 mg/kg/injection, schedule: Q01DX001 (ip), vehicle: saline with Tween-80 89 % of control | dose: 33.0 mg/kg/injection, schedule: Q01DX001 (ip), vehicle: saline with Tween-80 96 % of control | dose: 50.0 mg/kg/injection, schedule: Q01DX001 (ip), vehicle: saline with Tween-80 94 % of control | [6] 97 % of control | dose: 75.0 mg/kg/injection, schedule: Q01DX001 (ip), vehicle: saline with Tween-80 90 % of control and 95 % of control | dose: 100.0 mg/kg/injection, schedule: Q01DX001 (ip), vehicle: saline with Tween-80 90 % of control | [7] 101 % of control | [8] 100 % of control | dose: 400.0 mg/kg/injection, schedule: Q04DX003 (ip), vehicle: saline 90 % of control

C[C@@H]1C[C@@H]2c3cccc4c3c(cn4C)C[C@H]2N(C)C1
inactive: [9] 104 % of control | [10] 107 % of control | [11] 104 % of control

[NH-]c1ncnc2[nH]c(C[N-]C(Cc3cnc[nH]3)C(=O)O)nc12.[Pd+2] (configuration not stated)
inactive: dose: 50.0 mg/kg/injection, schedule: Q01DX005 (ip), vehicle: saline 90 % of control | dose: 100.0 mg/kg/injection, schedule: Q01DX005 (ip), vehicle: saline 97 % of control | dose: 200.0 mg/kg/injection, schedule: Q01DX005 (ip), vehicle: saline 94 % of control

CCN(CC)C(=O)c1c(OC)cc(C)cc1C(O)c1cc(OC)cc(OC)c1 (configuration not stated)
inactive: [9] 99 % of control | [10] 99 % of control | [11] 96 % of control

NC(CCS)C(=O)O (configuration not stated)
inactive: [9] 90 % of control | [10] 92 % of control

COc1cc2c(cc1OC)/C(=N/N)CCC2
inactive: dose: 3.13 mg/kg/injection, schedule: Q01DX009 (ip), vehicle: water 100 % of control | dose: 6.25 mg/kg/injection, schedule: Q01DX009 (ip), vehicle: water 100 % of control | dose: 12.5 mg/kg/injection, schedule: Q01DX009 (ip), vehicle: water 95 % of control | dose: 25.0 mg/kg/injection, schedule: Q01DX009 (ip), vehicle: water 91 % of control | dose: 50.0 mg/kg/injection, schedule: Q01DX009 (ip), vehicle: water 91 % of control

CC(C)=C(C)OS(=O)(=O)C(F)(F)F
inactive: dose: 50.0 mg/kg/injection, schedule: Q01DX009 (ip), vehicle: olive oil, sesame oil, peanut oil 102 % of control | dose: 100.0 mg/kg/injection, schedule: Q01DX009 (ip), vehicle: olive oil, sesame oil, peanut oil 114 % of control | dose: 200.0 mg/kg/injection, schedule: Q01DX009 (ip), vehicle: olive oil, sesame oil, peanut oil 96 % of control

CC1(C)CC(N2CCN(CCO)CC2)=CC(=S)N1
inactive: [12] 103 % of control | [13] 93 % of control | [14] 104 % of control

O=C(O)c1ccccc1N1C(=O)CC2(CCCC2)C1=O
inactive: dose: 50.0 mg/kg/injection, schedule: Q01DX009 (ip), vehicle: Klucel (hydroxypropylcellulose) (HPC) 101 % of control | dose: 100.0 mg/kg/injection, schedule: Q01DX009 (ip), vehicle: Klucel (hydroxypropylcellulose) (HPC) 98 % of control | dose: 200.0 mg/kg/injection, schedule: Q01DX009 (ip), vehicle: Klucel (hydroxypropylcellulose) (HPC) 94 % of control

CC1C(=O)C(C)C(c2ccc(Cl)cc2)OC1c1ccccc1 (configuration not stated)
inactive: dose: 50.0 mg/kg/injection, schedule: Q01DX001 (ip), vehicle: Klucel (hydroxypropylcellulose) (HPC) 94 % of control | dose: 100.0 mg/kg/injection, schedule: Q01DX001 (ip), vehicle: Klucel (hydroxypropylcellulose) (HPC) 95 % of control | dose: 200.0 mg/kg/injection, schedule: Q01DX001 (ip), vehicle: Klucel (hydroxypropylcellulose) (HPC) 105 % of control

CC(=O)Oc1ccccc1C(=O)OC(C)c1ccccc1 (configuration not stated)
inactive: [12] 100 % of control | [13] 98 % of control | [14] 104 % of control

O=C1C=C/C(=C\c2ccc(Cl)cc2)O1
inactive: dose: 100.0 mg/kg/injection, schedule: Q04DX002 (ip), vehicle: Klucel (hydroxypropylcellulose) (HPC) 99 % of control | dose: 200.0 mg/kg/injection, schedule: Q04DX002 (ip), vehicle: Klucel (hydroxypropylcellulose) (HPC) 107 % of control | dose: 400.0 mg/kg/injection, schedule: Q04DX002 (ip), vehicle: Klucel (hydroxypropylcellulose) (HPC) 96 % of control

O=C(N=Nc1c(Cl)c(O)c2ccccc2c1O)C(=O)Nc1cccc(C(F)(F)F)c1
inactive: dose: 6.25 mg/kg/injection, schedule: Q01DX005 (ip), vehicle: Klucel (hydroxypropylcellulose) (HPC) 107 % of control | dose: 12.5 mg/kg/injection, schedule: Q01DX005 (ip), vehicle: Klucel (hydroxypropylcellulose) (HPC) 107 % of control | dose: 25.0 mg/kg/injection, schedule: Q01DX005 (ip), vehicle: Klucel (hydroxypropylcellulose) (HPC) 107 % of control | [12] 98 % of control

CCCCN=C1Nc2nc(=NCCCC)nc3c(Br)cc(Br)c(n23)N1
inactive: dose: 0.18 mg/kg/injection, schedule: Q01DX005 (ip), vehicle: Klucel (hydroxypropylcellulose) (HPC) 101 % of control | dose: 0.37 mg/kg/injection, schedule: Q01DX005 (ip), vehicle: Klucel (hydroxypropylcellulose) (HPC) 97 % of control | dose: 0.75 mg/kg/injection, schedule: Q01DX005 (ip), vehicle: Klucel (hydroxypropylcellulose) (HPC) 94 % of control | [1] 86 % of control | [2] 87 % of control and 89 % of control

N=c1ccc([N+](=O)[O-])cn1O
inactive: [3] 98 % of control | [4] 96 % of control

C(=C\c1cc(-c2cc(/C=C/c3ccccc3)[nH]n2)n[nH]1)/c1ccccc1
inactive: [15] 100 % of control | [16] 99 % of control

Cc1ccc(Nc2ccc3c4c(cc(=O)n3C)-c3ccccc3C(=O)c24)c(S(=O)(=O)O)c1
inactive: [3] 87 % of control | [4] 91 % of control | [5] 99 % of control | dose: 400.0 mg/kg/injection, schedule: Q01DX009 (ip), vehicle: saline 95 % of control

CCOC(=O)C1=C(C)Oc2cc3c(cc2C1c1cc(OC)c(OC)c(OC)c1)OCO3 (configuration not stated)
inactive: [15] 97 % of control | [16] 98 % of control | dose: 240.0 mg/kg/injection, schedule: Q01DX005 (ip), vehicle: saline with Tween-80 94 % of control

O=C(O)c1oc2ccccc2c1/C=C/c1ccccc1
inactive: dose: 50.0 mg/kg/injection, schedule: Q01DX009 (ip), vehicle: saline with Tween-80 100 % of control | dose: 100.0 mg/kg/injection, schedule: Q01DX009 (ip), vehicle: saline with Tween-80 97 % of control | dose: 200.0 mg/kg/injection, schedule: Q01DX009 (ip), vehicle: saline with Tween-80 100 % of control

OCCN1CCC2(CC1)SSC1(CCN(CCO)CC1)S2
inactive: [6] 100 % of control | [7] 100 % of control | [8] 100 % of control

O=C1N=NC2=C1c1c3ccccc3c(O)n1CC2
inactive: dose: 25.0 mg/kg/injection, schedule: Q01DX005 (ip), vehicle: saline with Tween-80 99 % of control | [9] 101 % of control | [10] 95 % of control

NC(=S)N/N=C1/C(=O)N(c2ccc(Cl)cc2)C(=O)C1C(=O)Nc1ccc(Cl)cc1 (configuration not stated)
inactive: dose: 15.0 mg/kg/injection, schedule: Q01DX005 (ip), vehicle: saline with Tween-80 97 % of control | dose: 30.0 mg/kg/injection, schedule: Q01DX005 (ip), vehicle: saline with Tween-80 94 % of control | [15] 93 % of control and 94 % of control

NNC(=O)c1nc2ccccc2s1
inactive: dose: 37.5 mg/kg/injection, schedule: Q04DX003 (ip), vehicle: saline with Tween-80 100 % of control | dose: 75.0 mg/kg/injection, schedule: Q04DX003 (ip), vehicle: saline with Tween-80 100 % of control | dose: 150.0 mg/kg/injection, schedule: Q04DX003 (ip), vehicle: saline with Tween-80 95 % of control
